Source: patent publication US10106538B2, “Inhibitors of protein kinases” (PRINCETON DRUG DISCOVERY INC, priority 2015, dated 2018)

Key:
Test in all cases: Off-chip Mobility Shift Assay (MSA) kinase inhibition
Type in all cases: biochemical
PDGFRα = biological target: T1, PDGFRα (Homo sapiens, UniProt P16234); conditions: for inhibition at 0.1 µM: inhibitor concentration 0.1 μM
T1 construct: purchased Carna Biosciences
How it was run: (§1)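 Compound, substrate/ATP/metal mix and kinase were combined in 20 mM HEPES, 0.01% Triton X100, 2 mM DTT, pH 7.5 and incubated 1 or 5 hour(s) at room temperature. Kinase inhibition was read by off-chip mobility shift.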

AKT3 = biological target: T2, AKT3 (Homo sapiens, UniProt Q9Y243); conditions: inhibitor concentration 0.1 μM
T2 construct: purchased Carna Biosciences
T2 sequence (Q9Y243 whole entry): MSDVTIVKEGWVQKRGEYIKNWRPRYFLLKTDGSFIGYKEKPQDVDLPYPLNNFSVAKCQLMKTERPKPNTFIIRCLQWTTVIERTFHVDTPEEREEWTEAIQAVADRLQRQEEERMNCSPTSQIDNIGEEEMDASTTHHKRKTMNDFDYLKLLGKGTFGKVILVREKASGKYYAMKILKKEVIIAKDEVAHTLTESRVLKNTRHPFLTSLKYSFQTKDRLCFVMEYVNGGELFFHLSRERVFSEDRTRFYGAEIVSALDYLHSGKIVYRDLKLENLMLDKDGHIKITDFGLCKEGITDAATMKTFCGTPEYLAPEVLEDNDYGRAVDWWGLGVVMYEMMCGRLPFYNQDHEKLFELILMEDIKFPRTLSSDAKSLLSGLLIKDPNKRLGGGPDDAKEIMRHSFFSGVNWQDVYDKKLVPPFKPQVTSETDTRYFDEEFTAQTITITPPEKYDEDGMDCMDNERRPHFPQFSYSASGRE
How it was run: as §1

BMX = biological target: T3, BMX (Homo sapiens, UniProt P51813); conditions: inhibitor concentration 0.1 μM
T3 construct: purchased Carna Biosciences
T3 sequence (P51813 1-675): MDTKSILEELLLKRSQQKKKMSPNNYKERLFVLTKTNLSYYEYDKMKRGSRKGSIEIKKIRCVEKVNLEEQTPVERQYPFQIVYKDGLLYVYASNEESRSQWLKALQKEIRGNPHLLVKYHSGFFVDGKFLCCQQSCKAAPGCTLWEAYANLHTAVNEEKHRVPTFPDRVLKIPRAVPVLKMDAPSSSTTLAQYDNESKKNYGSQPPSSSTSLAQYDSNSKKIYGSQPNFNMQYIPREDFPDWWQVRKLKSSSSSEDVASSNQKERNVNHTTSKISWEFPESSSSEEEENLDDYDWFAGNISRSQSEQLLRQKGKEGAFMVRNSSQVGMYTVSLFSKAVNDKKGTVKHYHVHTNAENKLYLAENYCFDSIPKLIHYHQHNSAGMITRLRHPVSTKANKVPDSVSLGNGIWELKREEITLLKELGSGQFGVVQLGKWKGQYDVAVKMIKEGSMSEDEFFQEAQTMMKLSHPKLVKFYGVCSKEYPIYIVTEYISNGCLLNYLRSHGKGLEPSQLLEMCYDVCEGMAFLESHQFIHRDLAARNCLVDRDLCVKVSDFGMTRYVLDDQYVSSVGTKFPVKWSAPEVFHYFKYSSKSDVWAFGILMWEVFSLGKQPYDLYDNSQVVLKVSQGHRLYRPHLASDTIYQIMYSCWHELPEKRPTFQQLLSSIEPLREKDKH
How it was run: as §1

BTK = biological target: T4, BTK (Homo sapiens, UniProt Q06187); conditions: for inhibition at 0.1 µM: inhibitor concentration 0.1 μM
T4 construct: purchased Carna Biosciences
How it was run: as §1

EGFR = biological target: T5, EGFR (Homo sapiens, UniProt P00533); conditions: for inhibition at 0.1 µM: inhibitor concentration 0.1 μM
T5 construct: purchased Carna Biosciences
T5 sequence (P00533 25-1210): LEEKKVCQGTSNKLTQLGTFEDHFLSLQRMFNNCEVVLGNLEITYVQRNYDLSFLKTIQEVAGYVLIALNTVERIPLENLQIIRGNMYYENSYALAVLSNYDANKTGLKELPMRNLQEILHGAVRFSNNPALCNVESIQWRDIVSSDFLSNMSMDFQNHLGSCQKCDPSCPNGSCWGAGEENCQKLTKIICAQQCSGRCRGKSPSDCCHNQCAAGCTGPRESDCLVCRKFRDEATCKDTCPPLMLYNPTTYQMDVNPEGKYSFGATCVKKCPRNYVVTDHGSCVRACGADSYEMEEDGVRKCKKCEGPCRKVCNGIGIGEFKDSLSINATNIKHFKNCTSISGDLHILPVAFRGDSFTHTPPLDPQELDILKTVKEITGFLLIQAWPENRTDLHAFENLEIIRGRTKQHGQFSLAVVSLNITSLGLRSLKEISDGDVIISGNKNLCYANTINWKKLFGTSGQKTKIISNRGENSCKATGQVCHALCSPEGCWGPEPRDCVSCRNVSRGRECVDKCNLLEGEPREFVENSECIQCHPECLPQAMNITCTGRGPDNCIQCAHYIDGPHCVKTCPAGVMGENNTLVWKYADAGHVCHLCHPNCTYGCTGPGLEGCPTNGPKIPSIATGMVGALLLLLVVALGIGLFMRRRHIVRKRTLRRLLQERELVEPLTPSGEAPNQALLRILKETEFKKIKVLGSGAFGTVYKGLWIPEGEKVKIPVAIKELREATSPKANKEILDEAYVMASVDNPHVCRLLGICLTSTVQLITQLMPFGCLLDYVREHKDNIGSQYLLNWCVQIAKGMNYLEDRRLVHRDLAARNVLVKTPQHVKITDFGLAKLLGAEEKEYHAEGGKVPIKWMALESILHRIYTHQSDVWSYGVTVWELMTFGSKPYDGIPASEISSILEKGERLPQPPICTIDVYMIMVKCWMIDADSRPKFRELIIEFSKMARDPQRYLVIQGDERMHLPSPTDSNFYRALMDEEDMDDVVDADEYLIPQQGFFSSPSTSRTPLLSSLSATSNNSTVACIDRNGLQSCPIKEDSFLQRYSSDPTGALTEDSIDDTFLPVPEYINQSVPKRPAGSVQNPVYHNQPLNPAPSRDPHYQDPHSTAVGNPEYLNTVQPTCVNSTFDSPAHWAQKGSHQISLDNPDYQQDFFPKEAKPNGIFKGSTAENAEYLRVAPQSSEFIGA
How it was run: as §1

Erk2 = biological target: T6, Erk2 (Homo sapiens, UniProt P28482); conditions: for inhibition at 0.1 µM: inhibitor concentration 0.1 μM
T6 construct: purchased Carna Biosciences
T6 sequence (P28482 whole entry): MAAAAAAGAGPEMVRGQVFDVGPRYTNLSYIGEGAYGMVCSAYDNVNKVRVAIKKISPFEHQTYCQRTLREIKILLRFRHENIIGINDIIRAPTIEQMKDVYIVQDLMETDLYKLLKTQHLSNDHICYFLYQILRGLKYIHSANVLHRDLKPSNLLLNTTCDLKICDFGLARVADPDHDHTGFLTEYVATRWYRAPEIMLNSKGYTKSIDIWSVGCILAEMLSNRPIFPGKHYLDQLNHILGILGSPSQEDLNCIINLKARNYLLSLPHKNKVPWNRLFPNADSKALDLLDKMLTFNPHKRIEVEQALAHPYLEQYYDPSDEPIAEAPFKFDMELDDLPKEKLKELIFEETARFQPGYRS
How it was run: as §1

FAK = biological target: T7, FAK (Homo sapiens, UniProt Q05397); conditions: inhibitor concentration 0.1 μM
T7 construct: purchased Carna Biosciences, Inc
T7 sequence (Q05397 whole entry): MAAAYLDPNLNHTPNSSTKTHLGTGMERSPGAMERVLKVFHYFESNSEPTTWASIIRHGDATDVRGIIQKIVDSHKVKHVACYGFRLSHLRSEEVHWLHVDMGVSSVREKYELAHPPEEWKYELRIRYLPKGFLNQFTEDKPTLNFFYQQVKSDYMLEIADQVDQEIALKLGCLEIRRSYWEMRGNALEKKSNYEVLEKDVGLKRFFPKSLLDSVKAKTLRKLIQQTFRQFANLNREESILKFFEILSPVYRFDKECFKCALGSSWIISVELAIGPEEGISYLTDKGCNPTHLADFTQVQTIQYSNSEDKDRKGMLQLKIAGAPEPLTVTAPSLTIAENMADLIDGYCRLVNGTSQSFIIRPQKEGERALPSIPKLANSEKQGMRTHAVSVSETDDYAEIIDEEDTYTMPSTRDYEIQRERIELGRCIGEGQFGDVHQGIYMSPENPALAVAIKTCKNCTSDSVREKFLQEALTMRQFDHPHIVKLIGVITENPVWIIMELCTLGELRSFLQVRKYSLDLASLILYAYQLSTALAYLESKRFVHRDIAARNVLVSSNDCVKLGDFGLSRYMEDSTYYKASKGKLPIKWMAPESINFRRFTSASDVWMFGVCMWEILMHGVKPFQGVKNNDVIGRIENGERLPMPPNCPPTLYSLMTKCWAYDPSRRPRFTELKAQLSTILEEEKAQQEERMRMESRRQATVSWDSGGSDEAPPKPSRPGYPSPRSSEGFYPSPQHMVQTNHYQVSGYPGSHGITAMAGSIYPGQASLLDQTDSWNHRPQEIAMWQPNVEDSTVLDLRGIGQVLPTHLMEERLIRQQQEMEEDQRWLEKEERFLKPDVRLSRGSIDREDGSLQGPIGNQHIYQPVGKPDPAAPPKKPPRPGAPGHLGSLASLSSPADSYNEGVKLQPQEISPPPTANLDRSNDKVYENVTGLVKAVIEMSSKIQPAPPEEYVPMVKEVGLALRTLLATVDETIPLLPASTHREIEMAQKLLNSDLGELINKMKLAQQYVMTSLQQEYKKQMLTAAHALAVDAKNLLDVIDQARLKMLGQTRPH
How it was run: as §1

FLT3 = biological target: T8, FLT3 (Homo sapiens, UniProt P36888); conditions: for inhibition at 0.1 µM: inhibitor concentration 0.1 μM
T8 construct: purchased Carna Biosciences
T8 sequence (P36888 27-993): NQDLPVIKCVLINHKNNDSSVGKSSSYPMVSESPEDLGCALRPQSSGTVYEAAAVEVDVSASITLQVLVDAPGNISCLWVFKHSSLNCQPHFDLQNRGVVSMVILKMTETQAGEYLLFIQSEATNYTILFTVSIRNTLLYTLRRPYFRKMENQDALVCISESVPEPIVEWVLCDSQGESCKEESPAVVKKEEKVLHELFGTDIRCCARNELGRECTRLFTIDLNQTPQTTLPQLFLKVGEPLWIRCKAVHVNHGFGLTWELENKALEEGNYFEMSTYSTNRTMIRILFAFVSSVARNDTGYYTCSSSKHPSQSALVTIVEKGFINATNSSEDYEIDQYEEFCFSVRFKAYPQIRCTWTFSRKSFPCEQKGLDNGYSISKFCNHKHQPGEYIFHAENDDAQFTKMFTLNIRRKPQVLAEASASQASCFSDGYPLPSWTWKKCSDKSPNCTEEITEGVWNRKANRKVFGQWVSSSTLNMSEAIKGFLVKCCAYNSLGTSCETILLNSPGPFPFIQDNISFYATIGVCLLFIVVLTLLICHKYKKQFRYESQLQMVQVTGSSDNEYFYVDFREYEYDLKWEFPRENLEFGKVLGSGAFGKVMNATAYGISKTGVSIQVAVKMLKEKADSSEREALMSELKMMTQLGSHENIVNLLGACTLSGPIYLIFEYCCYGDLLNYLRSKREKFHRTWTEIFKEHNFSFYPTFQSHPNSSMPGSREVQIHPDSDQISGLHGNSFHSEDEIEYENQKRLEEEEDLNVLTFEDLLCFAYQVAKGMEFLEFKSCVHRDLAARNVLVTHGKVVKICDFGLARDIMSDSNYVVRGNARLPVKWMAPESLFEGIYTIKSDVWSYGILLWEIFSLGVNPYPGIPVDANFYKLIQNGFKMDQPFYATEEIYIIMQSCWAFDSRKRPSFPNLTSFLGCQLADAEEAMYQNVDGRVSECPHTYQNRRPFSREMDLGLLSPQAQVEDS
How it was run: as §1

KDR = biological target: T9, KDR (Homo sapiens, UniProt P35968); conditions: for inhibition at 0.1 µM: inhibitor concentration 0.1 μM
T9 construct: purchased Carna Biosciences
How it was run: as §1

MNK1 = biological target: T10, MNK1 (Homo sapiens, UniProt Q9BUB5); conditions: for inhibition at 0.1 µM: inhibitor concentration 0.1 μM
T10 construct: purchased Carna Biosciences
T10 sequence (Q9BUB5 whole entry): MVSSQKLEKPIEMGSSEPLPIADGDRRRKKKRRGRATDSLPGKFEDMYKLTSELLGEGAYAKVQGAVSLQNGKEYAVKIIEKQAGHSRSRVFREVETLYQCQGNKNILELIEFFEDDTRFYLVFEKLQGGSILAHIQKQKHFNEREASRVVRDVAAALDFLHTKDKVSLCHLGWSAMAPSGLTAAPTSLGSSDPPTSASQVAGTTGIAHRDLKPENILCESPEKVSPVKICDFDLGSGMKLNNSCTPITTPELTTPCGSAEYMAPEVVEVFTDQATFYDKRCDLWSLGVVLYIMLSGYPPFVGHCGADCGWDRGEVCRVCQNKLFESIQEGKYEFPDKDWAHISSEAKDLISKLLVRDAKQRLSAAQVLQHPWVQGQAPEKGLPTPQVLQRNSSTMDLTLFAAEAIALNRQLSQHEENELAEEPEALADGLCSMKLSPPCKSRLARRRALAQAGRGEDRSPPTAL
How it was run: as §1

PKACα = biological target: T11, PKACα (Homo sapiens, UniProt P17612); conditions: inhibitor concentration 0.1 μM
T11 construct: purchased Carna Biosciences, Inc
How it was run: as §1

[1] = inhibitor concentration 0.01 μM

T1 sequence (P16234 24-1089): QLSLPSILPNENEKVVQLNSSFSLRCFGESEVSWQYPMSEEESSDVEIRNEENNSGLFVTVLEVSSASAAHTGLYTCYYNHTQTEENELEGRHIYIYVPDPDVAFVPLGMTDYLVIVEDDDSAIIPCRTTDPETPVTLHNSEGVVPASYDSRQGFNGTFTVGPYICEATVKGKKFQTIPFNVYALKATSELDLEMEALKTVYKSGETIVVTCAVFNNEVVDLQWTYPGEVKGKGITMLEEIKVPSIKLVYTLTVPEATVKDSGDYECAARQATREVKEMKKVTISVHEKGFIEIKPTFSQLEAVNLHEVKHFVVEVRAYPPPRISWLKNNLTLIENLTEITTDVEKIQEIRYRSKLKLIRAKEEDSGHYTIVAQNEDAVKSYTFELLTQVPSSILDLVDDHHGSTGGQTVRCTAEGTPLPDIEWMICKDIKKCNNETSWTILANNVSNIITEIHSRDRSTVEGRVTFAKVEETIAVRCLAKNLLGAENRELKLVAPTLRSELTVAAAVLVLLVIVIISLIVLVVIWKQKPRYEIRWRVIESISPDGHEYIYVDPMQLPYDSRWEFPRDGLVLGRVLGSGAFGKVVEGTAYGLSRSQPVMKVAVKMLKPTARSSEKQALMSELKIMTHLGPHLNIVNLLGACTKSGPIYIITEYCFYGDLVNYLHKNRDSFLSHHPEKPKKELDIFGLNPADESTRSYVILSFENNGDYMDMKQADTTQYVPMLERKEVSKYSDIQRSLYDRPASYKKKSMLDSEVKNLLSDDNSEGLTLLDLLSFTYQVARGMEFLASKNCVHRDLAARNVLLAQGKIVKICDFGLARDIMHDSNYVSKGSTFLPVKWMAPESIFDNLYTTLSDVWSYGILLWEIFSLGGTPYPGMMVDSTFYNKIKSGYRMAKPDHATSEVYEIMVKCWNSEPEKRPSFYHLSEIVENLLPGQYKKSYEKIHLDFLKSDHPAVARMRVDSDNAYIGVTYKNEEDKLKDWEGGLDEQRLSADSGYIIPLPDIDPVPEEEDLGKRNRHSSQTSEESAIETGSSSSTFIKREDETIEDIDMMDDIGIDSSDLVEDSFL

| inhibition at 0.1 µM (AKT3) | inhibition at 0.1 µM (BMX) | inhibition at 0.1 µM (BTK) | inhibition at 0.1 µM (EGFR) | inhibition at 0.1 µM (Erk2) | inhibition at 0.1 µM (FAK) | inhibition at 0.1 µM (FLT3) | inhibition at 0.1 µM (KDR) | inhibition at 0.1 µM (MNK1) | inhibition at 0.1 µM (PDGFRα) | inhibition at 0.1 µM (PKACα) | SMILES | also measured |
| --- | --- | --- | --- | --- | --- | --- | --- | --- | --- | --- | --- | --- |
|  |  |  |  |  |  |  |  |  |  |  | C/C=C/S(=O)(=O)Nc1ccc(F)c(C(=O)c2c[nH]c3ncc(-c4ccc(Cl)cc4)cc23)c1F [200-93b] | PDGFRα inhibition (PDGFRα; [1]): >20% |
| < 30% | < 30% | < 30% | < 30% | < 30% | < 30% | < 30% | < 30% | < 30% | < 30% | < 30% | O=C(c1c(F)ccc(NS(=O)(=O)CC(O)CO)c1F)c1c[nH]c2ncc(-c3ccc(Cl)cc3)cc12 (stereo not drawn) [200-73, N-[3-[5-(4-chlorophenyl)-lH-pyrrolo [2,3-b]pyridine-3-carbonyl]-2,4-difluorophenyl]-2,3-dihydroxypropane-l-sulfonamide] |  |
| < 30% | < 30% | < 30% | < 30% | < 30% | < 30% | < 30% | < 30% | < 30% | > 30% | < 30% | CC(=O)CS(=O)(=O)Nc1ccc(F)c(C(=O)c2c[nH]c3ncc(-c4ccc(Cl)cc4)cc23)c1F [200-117] |  |
|  |  | < 50% |  |  |  |  | > 50% |  | > 50% |  | O=C(c1c(F)ccc(NS(=O)(=O)CCCO)c1F)c1c[nH]c2ncc(-c3ccc(Cl)cc3)cc12 [200-17, N-[3-[5-(4-chlorophenyl)-1H-pyrrolo[2,3-b]pyridine-3-carbonyl]-2,4-difluorophenyl]-3-hydroxypropane-1-sulfonamide] | inhibition at 0.01 µM (BTK; [1]): < 30%; inhibition at 1 µM (BTK; inhibitor concentration 1 μM): < 50%; inhibition at 1 µM (EGFR; inhibitor concentration 1 μM): > 50%; inhibition at 1 µM (Erk2; inhibitor concentration 1 μM): < 50%; inhibition at 1 µM (FLT3; inhibitor concentration 1 μM): > 50%; inhibition at 0.01 µM (KDR; [1]): < 30%; inhibition at 1 µM (KDR; inhibitor concentration 1 μM): > 50%; inhibition at 1 µM (MNK1; inhibitor concentration 1 μM): > 50%; inhibition at 0.01 µM (PDGFRα; [1]): < 30%; inhibition at 1 µM (PDGFRα; inhibitor concentration 1 μM): > 50% |

| SMILES | inhibition at 0.1 µM (AKT3) | inhibition at 0.1 µM (BMX) | inhibition at 0.1 µM (BTK) | inhibition at 0.1 µM (EGFR) | inhibition at 0.1 µM (Erk2) | inhibition at 0.1 µM (FAK) | inhibition at 0.1 µM (FLT3) | inhibition at 0.1 µM (KDR) | inhibition at 0.1 µM (MNK1) | inhibition at 0.1 µM (PDGFRα) | inhibition at 0.1 µM (PKACα) | also measured |
| --- | --- | --- | --- | --- | --- | --- | --- | --- | --- | --- | --- | --- |
| CC(O)CS(=O)(=O)Nc1ccc(F)c(C(=O)c2c[nH]c3ncc(-c4ccc(Cl)cc4)cc23)c1F (centres unmarked) [200-115] | < 30% | < 30% | < 30% | < 30% | < 30% | < 30% | < 30% | < 30% | < 30% | > 30% | < 30% |  |
